According to PubChem BioAssay (NCI):
Several values for one entry are separate records, joined by “and”; a condition that tells them apart may be missing. Equal values may be shown once.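 48-hour exposure; five concentrations; linearly interpolated endpoints. At the GI50, growth is halved. TGI marks complete inhibition of growth.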

Legend:
Experiment in all cases: NCI tumour cell line growth inhibition, 48 h
A549 NSCLC = tested on: A549 NSCLC
HOP-62 NSCLC = tested on: HOP-62 NSCLC
M14 melanoma = tested on: M14 melanoma
MDA-MB-435 = tested on: MDA-MB-435
OVCAR-3 ovarian = tested on: OVCAR-3 ovarian
RPMI-8226 leukemia = tested on: RPMI-8226 leukemia
SN12C renal = tested on: SN12C renal
SNB-19 CNS = tested on: SNB-19 CNS
U251 CNS = tested on: U251 CNS
UACC-257 melanoma = tested on: UACC-257 melanoma

| Compound | GI50 (A549 NSCLC) | TGI (A549 NSCLC) | GI50 (HOP-62 NSCLC) | TGI (HOP-62 NSCLC) | GI50 (M14 melanoma) | TGI (M14 melanoma) | GI50 (MDA-MB-435) | TGI (MDA-MB-435) | GI50 (OVCAR-3 ovarian) | TGI (OVCAR-3 ovarian) | GI50 (RPMI-8226 leukemia) | TGI (RPMI-8226 leukemia) | GI50 (SN12C renal) | TGI (SN12C renal) | GI50 (SNB-19 CNS) | TGI (SNB-19 CNS) | GI50 (U251 CNS) | TGI (U251 CNS) | GI50 (UACC-257 melanoma) | TGI (UACC-257 melanoma) |
| --- | --- | --- | --- | --- | --- | --- | --- | --- | --- | --- | --- | --- | --- | --- | --- | --- | --- | --- | --- | --- |
| O=C=Nc1ccc(Cc2ccc(N=C=O)cc2)cc1 (tested in a mixture with another compound) | > 25 µg/mL | > 25 µg/mL | > 25 µg/mL | > 25 µg/mL | > 25 µg/mL | > 25 µg/mL | > 25 µg/mL | > 25 µg/mL | > 25 µg/mL | > 25 µg/mL | > 25 µg/mL | > 25 µg/mL | > 25 µg/mL | > 25 µg/mL | > 25 µg/mL | > 25 µg/mL | > 25 µg/mL | > 25 µg/mL | > 25 µg/mL | > 25 µg/mL |
| O=C1Nc2ccccc2SC1C1SC(=S)N(Cc2ccccc2)C1=O (stereo not given) | 16 µM | > 51.4 µM | 6.62 µM | 19.7 µM | 4.6 µM | 19.8 µM | 3.04 µM | 15.5 µM | 2.37 µM | 6.31 µM | 0.488 µM | 7.39 µM | 4.79 µM | 15.2 µM | 11.2 µM | 29.5 µM | 3.14 µM | 12.2 µM | 20.1 µM | 39 µM |
| CC/C(=C(\c1ccc(O)cc1)c1ccc(OCCNC)cc1)c1ccccc1 | 2.33 µM and 1.79 µM and 1.74 µM | 5.55 µM and 3.49 µM and 3.75 µM | 1.88 µM and 1.83 µM and 1.71 µM | 3.35 µM and 3.32 µM and 3.42 µM | 1.8 µM and 1.75 µM and 1.86 µM | 3.25 µM and 3.24 µM and 3.63 µM | 1.51 µM and 1.57 µM and 1.58 µM | 3.04 µM and 3.07 µM and 3.02 µM | 2.09 µM and 1.72 µM and 1.97 µM | 4.11 µM and 3.16 µM and 3.9 µM | 2.08 µM and 1.99 µM and 2.27 µM | 5.05 µM and 4.58 µM and 5.73 µM | 1.98 µM and 2.86 µM and 3.02 µM | 8.84 µM and 9.58 µM and 10.4 µM | 3.61 µM and 2.67 µM and 2.63 µM | 10.9 µM and 8.03 µM and 7.01 µM | 1.57 µM and 1.5 µM and 1.66 µM | 2.92 µM and 2.83 µM and 3.15 µM | 1.93 µM and 1.64 µM and 1.7 µM | 3.82 µM and 3.35 µM and 3.28 µM |
| Cc1ccnc2c1NC(=O)c1cccnc1N2C1CC1 | > 100 µM | > 100 µM | > 100 µM | > 100 µM | > 100 µM | > 100 µM | > 100 µM | > 100 µM | > 100 µM | > 100 µM | > 100 µM | > 100 µM | > 100 µM | > 100 µM | > 100 µM | > 100 µM | > 100 µM | > 100 µM | > 100 µM | > 100 µM |
| CSC(=S)NN=C1CCCCC1 |  | > 100 µM |  | > 100 µM |  | 38.7 µM |  | > 100 µM |  | > 100 µM |  | 0.647 µM |  | 84.9 µM |  | > 100 µM |  | > 100 µM |  | > 100 µM |
| NC(N)=NC(N)=NCCc1ccccc1 | > 100 µM and 97.1 µM | > 100 µM | 37.4 µM and > 100 µM | > 100 µM | > 100 µM | > 100 µM | > 100 µM | > 100 µM | 83.9 µM and > 100 µM | > 100 µM | 11.1 µM and 7.54 µM | > 100 µM | > 100 µM | > 100 µM | > 100 µM | > 100 µM | > 100 µM | > 100 µM | > 100 µM and 97.3 µM | > 100 µM |
| O=C1C(Nc2ccccn2)=C(I)C(=O)c2ncccc21 | 1.28 µM | 2.88 µM | 1.12 µM | 2.43 µM | 1.18 µM | 2.6 µM | 0.307 µM | 0.947 µM | 0.378 µM | 1.6 µM | 1.19 µM | 3.73 µM | 0.889 µM | 2.56 µM | 1.04 µM | 2.24 µM | 0.591 µM | 2.07 µM | 1.59 µM | 3.49 µM |
| O=C1/C(=C\c2ccccc2)c2ccccc2N1Cc1ccccc1 |  | 22.5 µM |  | 17.6 µM |  | 23.9 µM |  | 16.5 µM |  | 11.9 µM |  | 9.28 µM |  | 28.9 µM |  | 15 µM |  | 15.2 µM |  | 17.6 µM |
| c1ccc(-c2cc(-c3cc(-c4ccccn4)[nH]n3)n[nH]2)nc1 |  | > 100 µM |  | > 100 µM |  | > 100 µM |  | > 100 µM |  | > 100 µM |  | > 100 µM |  | > 100 µM |  | > 100 µM |  | > 100 µM |  | > 100 µM |
| N#Cc1c(NC(=O)CCC(=O)O)ccc2ccccc12 |  | > 100 µM |  | > 100 µM |  | > 100 µM |  | > 100 µM |  | > 100 µM |  | > 100 µM |  | > 100 µM |  | > 100 µM |  | > 100 µM |  | > 100 µM |
| C=CC1=C(C)C2=NC1=CC1=NC(=C(CC)/C1=C/O)C=C1C=C3C(=O)C(C(=O)OC)C(=C4NC(=C2)C(C)C4CCC(=O)OC/C=C(\C)CCCC(C)CCCC(C)CCCC(C)C)C3=N1 (stereo not given) (tested in a mixture with another compound) |  | > 100 µM |  | > 100 µM |  | > 100 µM |  | > 100 µM |  | > 100 µM |  | > 100 µM |  | > 100 µM |  | > 100 µM |  | > 100 µM |  | > 100 µM |
| O=c1cccc(C#CCCCCOC2CCCO2)o1 (stereo not given) | 9.16 µM | > 48.8 µM | 7.88 µM | 18.2 µM | 9.49 µM | > 27.9 µM | 16.1 µM | 44.8 µM | 11.2 µM | 27.1 µM | 2.93 µM | 63.7 µM | 98.6 µM | > 100 µM | > 28.6 µM | > 56.5 µM | 28.8 µM | > 70.1 µM | 9.49 µM | > 20.2 µM |
